Measured values: ChEMBL document CHEMBL3991601, “The target landscape of clinical kinase drugs” (Science, 2017)
Active and inactive are the calls of the source. For most assays here, no stated cut-off is given here; in the data, actives have a measured Kd and inactives only a lower limit.

Tests used:
[1] = molecular target: T1, RNA cytidine acetyltransferase (Homo sapiens, UniProt Q9H0A0)
T1 sequence (Q9H0A0 whole entry): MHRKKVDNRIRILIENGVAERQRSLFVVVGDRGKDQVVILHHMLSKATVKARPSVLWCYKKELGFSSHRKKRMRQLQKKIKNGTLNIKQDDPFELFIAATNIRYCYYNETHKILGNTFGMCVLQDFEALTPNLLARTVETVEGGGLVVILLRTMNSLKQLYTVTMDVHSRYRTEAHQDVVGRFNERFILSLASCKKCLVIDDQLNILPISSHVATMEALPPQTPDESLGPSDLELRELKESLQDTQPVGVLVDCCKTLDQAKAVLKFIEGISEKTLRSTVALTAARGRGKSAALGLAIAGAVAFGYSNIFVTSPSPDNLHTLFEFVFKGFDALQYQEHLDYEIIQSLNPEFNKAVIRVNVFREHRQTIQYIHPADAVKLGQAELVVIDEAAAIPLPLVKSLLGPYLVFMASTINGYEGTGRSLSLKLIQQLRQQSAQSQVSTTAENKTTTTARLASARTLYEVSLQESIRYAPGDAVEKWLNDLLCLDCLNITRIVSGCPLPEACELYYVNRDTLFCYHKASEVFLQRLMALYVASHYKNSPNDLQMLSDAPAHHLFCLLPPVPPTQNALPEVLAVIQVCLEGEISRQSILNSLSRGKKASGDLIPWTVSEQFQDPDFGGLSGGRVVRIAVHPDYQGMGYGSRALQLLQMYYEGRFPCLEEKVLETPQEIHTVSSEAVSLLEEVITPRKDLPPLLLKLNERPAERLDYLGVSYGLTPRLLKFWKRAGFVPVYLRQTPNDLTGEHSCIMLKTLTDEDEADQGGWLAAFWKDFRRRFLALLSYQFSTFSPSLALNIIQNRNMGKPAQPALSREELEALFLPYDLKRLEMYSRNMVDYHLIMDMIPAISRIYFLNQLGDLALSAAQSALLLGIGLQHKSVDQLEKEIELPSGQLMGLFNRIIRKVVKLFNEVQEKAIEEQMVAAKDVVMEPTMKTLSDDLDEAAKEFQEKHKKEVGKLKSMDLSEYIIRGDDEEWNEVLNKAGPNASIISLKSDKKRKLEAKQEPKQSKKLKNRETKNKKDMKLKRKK

[2] = molecular target: T2, Serine/threonine-protein kinase 4 (Homo sapiens, UniProt Q13043)
T2 sequence (Q13043 whole entry): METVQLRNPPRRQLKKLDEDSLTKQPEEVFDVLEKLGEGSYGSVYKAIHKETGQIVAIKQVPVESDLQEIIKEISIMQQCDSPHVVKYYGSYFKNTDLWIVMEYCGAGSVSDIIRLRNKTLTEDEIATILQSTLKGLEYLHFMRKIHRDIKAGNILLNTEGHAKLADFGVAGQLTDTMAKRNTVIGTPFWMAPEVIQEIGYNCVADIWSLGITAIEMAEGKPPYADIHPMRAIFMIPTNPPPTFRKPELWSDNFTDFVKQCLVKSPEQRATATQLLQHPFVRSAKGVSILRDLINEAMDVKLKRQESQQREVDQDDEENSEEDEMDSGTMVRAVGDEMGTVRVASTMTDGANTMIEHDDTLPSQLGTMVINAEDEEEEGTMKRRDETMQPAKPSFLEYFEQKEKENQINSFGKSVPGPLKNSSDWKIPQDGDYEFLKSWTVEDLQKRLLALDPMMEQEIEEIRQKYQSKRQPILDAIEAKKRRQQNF

[3] = molecular target: Ephrin type-A receptor 7 (Homo sapiens, UniProt Q15375)
Chain of Ephrin type-A receptor 7 (Q15375 whole entry): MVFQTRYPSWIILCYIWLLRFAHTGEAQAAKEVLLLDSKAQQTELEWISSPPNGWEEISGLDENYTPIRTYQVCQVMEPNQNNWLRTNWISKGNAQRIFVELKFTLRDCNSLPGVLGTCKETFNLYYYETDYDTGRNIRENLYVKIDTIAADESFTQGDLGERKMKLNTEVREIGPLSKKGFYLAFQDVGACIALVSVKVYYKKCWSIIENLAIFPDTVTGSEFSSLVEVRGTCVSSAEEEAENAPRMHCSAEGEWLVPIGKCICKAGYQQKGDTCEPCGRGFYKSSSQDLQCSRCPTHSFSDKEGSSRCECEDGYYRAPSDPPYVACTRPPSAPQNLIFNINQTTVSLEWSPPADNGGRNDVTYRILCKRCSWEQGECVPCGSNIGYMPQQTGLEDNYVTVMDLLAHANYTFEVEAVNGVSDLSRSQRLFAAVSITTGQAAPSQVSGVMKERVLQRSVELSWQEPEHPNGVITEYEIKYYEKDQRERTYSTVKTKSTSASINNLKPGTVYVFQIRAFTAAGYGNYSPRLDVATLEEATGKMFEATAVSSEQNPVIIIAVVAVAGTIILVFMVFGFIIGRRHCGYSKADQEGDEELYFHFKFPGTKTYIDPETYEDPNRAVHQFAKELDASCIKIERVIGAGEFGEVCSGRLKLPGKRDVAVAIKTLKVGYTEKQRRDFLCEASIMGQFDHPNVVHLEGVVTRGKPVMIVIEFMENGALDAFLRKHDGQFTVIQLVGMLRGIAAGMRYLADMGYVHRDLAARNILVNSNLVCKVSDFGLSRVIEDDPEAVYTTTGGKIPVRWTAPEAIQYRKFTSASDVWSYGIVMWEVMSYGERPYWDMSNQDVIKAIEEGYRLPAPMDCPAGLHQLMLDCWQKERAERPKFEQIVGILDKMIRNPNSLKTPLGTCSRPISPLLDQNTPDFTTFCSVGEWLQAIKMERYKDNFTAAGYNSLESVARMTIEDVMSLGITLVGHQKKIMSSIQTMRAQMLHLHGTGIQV

[4] = molecular target: Tyrosine-protein kinase ABL2 (Homo sapiens, UniProt P42684)
Chain of Tyrosine-protein kinase ABL2 (P42684 whole entry): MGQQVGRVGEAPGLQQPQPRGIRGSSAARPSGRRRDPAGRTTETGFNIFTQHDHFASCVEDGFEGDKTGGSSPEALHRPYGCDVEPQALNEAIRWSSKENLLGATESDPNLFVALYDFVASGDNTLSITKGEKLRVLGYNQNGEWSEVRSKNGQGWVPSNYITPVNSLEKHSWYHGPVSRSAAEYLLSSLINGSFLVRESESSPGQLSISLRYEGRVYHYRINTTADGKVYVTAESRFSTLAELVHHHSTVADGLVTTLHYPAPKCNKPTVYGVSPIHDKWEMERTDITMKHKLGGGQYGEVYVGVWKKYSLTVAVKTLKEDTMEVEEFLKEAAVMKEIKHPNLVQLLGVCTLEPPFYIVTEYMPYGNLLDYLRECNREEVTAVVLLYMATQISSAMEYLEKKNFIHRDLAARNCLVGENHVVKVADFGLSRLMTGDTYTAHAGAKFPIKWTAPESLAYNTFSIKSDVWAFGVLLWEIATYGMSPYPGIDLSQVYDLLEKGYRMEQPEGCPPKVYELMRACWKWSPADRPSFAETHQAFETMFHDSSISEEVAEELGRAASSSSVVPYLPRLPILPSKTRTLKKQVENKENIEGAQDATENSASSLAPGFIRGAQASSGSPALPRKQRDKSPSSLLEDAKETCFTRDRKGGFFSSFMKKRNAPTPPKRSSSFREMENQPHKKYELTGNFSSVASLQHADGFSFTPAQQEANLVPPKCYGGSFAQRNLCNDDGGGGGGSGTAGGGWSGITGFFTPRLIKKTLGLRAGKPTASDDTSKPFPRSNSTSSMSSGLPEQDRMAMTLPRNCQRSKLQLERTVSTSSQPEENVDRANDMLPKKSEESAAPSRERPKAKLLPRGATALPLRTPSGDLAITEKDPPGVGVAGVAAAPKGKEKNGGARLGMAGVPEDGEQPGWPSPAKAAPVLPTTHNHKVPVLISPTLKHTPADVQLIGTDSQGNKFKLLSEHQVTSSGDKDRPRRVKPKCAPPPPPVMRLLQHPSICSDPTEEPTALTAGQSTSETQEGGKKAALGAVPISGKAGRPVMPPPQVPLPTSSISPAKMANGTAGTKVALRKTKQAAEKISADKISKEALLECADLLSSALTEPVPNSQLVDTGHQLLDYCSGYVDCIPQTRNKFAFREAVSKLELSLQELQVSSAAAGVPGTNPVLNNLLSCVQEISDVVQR

[5] = molecular target: Atypical kinase COQ8A, mitochondrial (Homo sapiens, UniProt Q8NI60)
Chain of Atypical kinase COQ8A, mitochondrial (Q8NI60 whole entry): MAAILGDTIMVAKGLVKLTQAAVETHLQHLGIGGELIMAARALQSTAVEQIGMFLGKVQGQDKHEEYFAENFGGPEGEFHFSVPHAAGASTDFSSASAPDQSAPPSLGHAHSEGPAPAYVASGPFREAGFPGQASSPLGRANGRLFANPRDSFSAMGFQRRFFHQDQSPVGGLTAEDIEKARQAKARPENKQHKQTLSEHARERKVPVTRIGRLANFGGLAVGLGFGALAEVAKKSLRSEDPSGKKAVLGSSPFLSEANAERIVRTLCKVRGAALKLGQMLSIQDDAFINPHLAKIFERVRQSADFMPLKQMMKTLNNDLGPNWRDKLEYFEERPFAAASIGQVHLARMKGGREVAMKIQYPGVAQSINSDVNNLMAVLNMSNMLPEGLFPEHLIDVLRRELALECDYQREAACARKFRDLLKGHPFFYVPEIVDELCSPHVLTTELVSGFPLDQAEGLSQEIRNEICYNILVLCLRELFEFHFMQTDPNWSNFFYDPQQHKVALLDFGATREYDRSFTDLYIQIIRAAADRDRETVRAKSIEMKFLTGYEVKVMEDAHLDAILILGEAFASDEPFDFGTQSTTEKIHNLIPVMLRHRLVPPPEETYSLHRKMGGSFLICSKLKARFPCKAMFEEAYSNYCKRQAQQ

[6] = molecular target: Dual specificity mitogen-activated protein kinase kinase 2 (Homo sapiens, UniProt P36507)
Chain of Dual specificity mitogen-activated protein kinase kinase 2 (P36507 whole entry): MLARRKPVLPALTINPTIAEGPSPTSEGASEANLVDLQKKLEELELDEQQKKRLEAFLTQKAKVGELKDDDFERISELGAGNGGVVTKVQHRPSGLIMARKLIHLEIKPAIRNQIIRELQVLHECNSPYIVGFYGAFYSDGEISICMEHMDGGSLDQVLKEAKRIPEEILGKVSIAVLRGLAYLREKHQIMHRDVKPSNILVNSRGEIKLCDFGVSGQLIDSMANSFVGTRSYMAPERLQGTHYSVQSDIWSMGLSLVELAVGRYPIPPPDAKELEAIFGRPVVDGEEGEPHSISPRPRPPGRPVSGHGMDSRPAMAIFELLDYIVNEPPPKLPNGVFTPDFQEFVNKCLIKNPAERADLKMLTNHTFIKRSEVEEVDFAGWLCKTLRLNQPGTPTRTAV

[7] = molecular target: T3, Cysteine--tRNA ligase, cytoplasmic (Homo sapiens, UniProt P49589)
T3 sequence (P49589 whole entry): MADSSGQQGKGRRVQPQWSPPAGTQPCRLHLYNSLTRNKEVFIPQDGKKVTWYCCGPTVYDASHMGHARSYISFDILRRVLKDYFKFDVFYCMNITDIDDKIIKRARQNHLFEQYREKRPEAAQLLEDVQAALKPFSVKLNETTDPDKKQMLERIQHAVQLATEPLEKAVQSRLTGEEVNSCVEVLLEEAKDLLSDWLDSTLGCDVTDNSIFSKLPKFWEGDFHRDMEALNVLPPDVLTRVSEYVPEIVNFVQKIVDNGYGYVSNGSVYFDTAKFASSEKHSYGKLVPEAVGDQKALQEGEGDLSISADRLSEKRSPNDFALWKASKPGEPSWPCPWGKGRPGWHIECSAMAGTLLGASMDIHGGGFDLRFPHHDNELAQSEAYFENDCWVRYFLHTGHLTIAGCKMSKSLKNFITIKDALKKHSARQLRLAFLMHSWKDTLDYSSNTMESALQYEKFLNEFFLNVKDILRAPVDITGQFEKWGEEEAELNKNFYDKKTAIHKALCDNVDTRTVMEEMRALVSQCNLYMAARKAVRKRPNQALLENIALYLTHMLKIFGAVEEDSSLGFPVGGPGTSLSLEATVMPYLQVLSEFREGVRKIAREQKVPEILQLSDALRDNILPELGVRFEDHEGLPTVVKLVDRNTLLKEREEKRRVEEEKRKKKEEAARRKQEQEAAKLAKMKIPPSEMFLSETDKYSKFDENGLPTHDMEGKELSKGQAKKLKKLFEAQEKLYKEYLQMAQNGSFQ

[8] = molecular target: S-adenosylmethionine synthase isoform type-2 (Homo sapiens, UniProt P31153)
Chain of S-adenosylmethionine synthase isoform type-2 (P31153 whole entry, canonical isoform): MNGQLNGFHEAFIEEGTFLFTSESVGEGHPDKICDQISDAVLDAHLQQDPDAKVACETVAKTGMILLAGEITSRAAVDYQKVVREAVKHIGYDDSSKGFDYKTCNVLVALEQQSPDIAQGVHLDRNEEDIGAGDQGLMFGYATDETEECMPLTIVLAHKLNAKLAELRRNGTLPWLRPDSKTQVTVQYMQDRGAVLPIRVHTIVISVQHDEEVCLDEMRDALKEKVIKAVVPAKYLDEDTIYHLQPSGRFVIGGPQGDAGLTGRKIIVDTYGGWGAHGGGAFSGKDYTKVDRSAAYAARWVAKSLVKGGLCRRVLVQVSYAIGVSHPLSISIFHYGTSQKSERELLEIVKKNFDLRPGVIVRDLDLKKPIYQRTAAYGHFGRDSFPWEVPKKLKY

[9] = molecular target: Bone morphogenetic protein receptor type-1B (Homo sapiens, UniProt O00238)
Chain of Bone morphogenetic protein receptor type-1B (O00238 whole entry): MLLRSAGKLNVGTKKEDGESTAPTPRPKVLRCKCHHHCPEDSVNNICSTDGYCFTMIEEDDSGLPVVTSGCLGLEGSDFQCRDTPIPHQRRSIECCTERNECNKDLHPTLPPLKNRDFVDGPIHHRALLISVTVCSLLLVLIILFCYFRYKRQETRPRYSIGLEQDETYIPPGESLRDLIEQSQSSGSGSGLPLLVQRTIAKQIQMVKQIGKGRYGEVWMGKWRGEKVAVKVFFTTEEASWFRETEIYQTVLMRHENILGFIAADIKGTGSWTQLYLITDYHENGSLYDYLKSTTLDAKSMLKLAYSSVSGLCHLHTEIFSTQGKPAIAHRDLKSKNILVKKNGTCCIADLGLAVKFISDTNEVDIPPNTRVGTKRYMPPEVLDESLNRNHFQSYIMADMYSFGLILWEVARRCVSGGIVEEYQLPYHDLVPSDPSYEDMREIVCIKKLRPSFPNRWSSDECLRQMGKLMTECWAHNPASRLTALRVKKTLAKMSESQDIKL

| Kd [1] | Kd [2] | Kd [3] | Kd [4] | Kd [5] | Kd [6] | Kd [7] | Kd [8] | Kd [9] | Structure (SMILES) |
| --- | --- | --- | --- | --- | --- | --- | --- | --- | --- |
| > 30 µM (inactive) | > 30 µM (inactive) | > 30 µM (inactive) | > 30 µM (inactive) | > 30 µM (inactive) | > 30 µM (inactive) | > 30 µM (inactive) | > 30 µM (inactive) | > 30 µM (inactive) | O=C(O)c1ccc2c(c1)nc(Nc1cccc(Cl)c1)c1ccncc12 [SILMITASERTIB] |
| > 30 µM (inactive) | > 30 µM (inactive) | > 30 µM (inactive) | > 30 µM (inactive) | > 30 µM (inactive) | > 30 µM (inactive) | > 30 µM (inactive) | > 30 µM (inactive) | > 30 µM (inactive) | C[C@@H]1COC(Nc2ccc3ncnc(Nc4ccc(OCc5nccs5)c(Cl)c4)c3c2)=N1 [VARLITINIB] |
| > 30 µM (inactive) | > 30 µM (inactive) | > 30 µM (inactive) | > 30 µM (inactive) | > 30 µM (inactive) | > 30 µM (inactive) | > 30 µM (inactive) | > 30 µM (inactive) | > 30 µM (inactive) | CNC(=O)c1cccc(-c2ccc3c(N4CCOC[C@@H]4C)nc(N4CCOC[C@@H]4C)nc3n2)c1 [VISTUSERTIB] |
| > 30 µM (inactive) | > 30 µM (inactive) | > 30 µM (inactive) | > 30 µM (inactive) | > 30 µM (inactive) | > 30 µM (inactive) | > 30 µM (inactive) | > 30 µM (inactive) | > 30 µM (inactive) | NC(=O)c1ccc(N(C(N)=O)c2c(F)cccc2F)nc1-c1ccc(F)cc1F [VX-702] |
| > 30 µM (inactive) | > 30 µM (inactive) | > 30 µM (inactive) | > 30 µM (inactive) | > 30 µM (inactive) | > 30 µM (inactive) | > 30 µM (inactive) | > 30 µM (inactive) | > 30 µM (inactive) | COc1cc2ncnc(Nc3ccc(O)cc3)c2cc1OC [WHI-P131] |

| Structure (SMILES) | Kd [1] | Kd [2] | Kd [3] | Kd [4] | Kd [5] | Kd [6] | Kd [7] | Kd [8] | Kd [9] |
| --- | --- | --- | --- | --- | --- | --- | --- | --- | --- |
| COCCN1CCN(Cc2ccc(-c3n[nH]c4c3C(=O)c3c(NC(=O)NN5CCOCC5)cccc3-4)cc2)CC1 [RGB-286638] | > 30 µM (inactive) | > 30 µM (inactive) | > 30 µM (inactive) | > 30 µM (inactive) | > 30 µM (inactive) | > 30 µM (inactive) | > 30 µM (inactive) | > 30 µM (inactive) | > 30 µM (inactive) |
| CN1CCN(c2nc(C3=C(c4c[nH]c5ccccc45)C(=O)NC3=O)c3ccccc3n2)CC1 [SOTRASTAURIN] | > 30 µM (inactive) | > 30 µM (inactive) | > 30 µM (inactive) | > 30 µM (inactive) | > 30 µM (inactive) | > 30 µM (inactive) | > 30 µM (inactive) | > 30 µM (inactive) | > 30 µM (inactive) |
